Measurements from ChEMBL document CHEMBL3758158, “Discovery of 2-azetidinone and 1H-pyrrole-2,5-dione derivatives containing sulfonamide group at the side chain as potential cholesterol absorption inhibitors” (Bioorg Med Chem Lett, 2016).
Active and inactive are the calls of the source. The calls are words filed in the database; no cut-off is given here.

Experiments:
[1] = target: T1, NPC1-like intracellular cholesterol transporter 1 (Homo sapiens) (UniProt Q9UHC9); assay: Inhibition of niemann pick C1-like protein-1 in human Caco-2 cells assessed as cholesterol uptake at 100 uM after 24 hrs by HPLC analysis; type: cell-based
T1 sequence (whole entry): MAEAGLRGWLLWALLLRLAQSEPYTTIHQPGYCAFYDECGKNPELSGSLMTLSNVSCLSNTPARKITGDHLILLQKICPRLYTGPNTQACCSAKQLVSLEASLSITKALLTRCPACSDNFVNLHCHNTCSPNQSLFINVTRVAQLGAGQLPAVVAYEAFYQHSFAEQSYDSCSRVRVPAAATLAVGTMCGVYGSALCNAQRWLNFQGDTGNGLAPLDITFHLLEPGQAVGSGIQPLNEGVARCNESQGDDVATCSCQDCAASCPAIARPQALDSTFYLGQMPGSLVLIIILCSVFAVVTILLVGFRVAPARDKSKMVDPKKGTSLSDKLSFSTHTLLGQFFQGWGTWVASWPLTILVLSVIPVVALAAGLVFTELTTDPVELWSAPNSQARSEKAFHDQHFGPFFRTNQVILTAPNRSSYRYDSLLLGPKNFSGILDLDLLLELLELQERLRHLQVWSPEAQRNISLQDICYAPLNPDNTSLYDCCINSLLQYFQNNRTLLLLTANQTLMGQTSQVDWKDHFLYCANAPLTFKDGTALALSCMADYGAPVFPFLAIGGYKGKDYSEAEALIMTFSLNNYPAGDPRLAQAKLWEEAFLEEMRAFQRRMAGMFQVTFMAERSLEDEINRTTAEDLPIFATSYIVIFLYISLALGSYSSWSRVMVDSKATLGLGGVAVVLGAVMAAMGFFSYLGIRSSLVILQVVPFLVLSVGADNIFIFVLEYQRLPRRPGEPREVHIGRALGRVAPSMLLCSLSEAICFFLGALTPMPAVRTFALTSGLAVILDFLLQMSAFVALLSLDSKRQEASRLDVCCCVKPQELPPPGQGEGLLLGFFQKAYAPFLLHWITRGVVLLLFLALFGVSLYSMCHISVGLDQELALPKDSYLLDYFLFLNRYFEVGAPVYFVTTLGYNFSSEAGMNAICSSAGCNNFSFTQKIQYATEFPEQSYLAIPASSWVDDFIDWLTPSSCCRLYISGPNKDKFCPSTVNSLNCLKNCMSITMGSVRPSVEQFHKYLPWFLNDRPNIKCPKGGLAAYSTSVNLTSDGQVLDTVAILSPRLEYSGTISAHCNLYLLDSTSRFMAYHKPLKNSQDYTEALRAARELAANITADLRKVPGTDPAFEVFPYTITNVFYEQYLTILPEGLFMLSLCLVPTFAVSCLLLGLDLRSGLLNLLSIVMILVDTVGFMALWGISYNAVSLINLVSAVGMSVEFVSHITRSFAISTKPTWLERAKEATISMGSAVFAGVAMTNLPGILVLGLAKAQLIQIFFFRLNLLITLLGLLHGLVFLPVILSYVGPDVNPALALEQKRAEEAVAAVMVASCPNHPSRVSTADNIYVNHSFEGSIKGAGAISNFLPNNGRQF

[2] = Cytotoxicity against human GES-1 cells assessed as cell viability after 48 hrs by MTT assay; type: cell-based, GES1; details: read-out: LC50
[3] = Octanol-water partition coefficient, logP of the compound by HPLC analysis; type: physicochemical
[4] = Cytotoxicity against human HEK293 cells assessed as cell viability after 48 hrs by MTT assay; type: cell-based; details: read-out: LC50
Hamster [5] = assay: Decrease in total cholesterol level in serum of cholesterol fed hamster model at 50 mg/kg/day, po administered for 7 days measured on day 7 post last dose; type: functional, Cricetinae; parameters: scale not given: the % may be the effect or the level left
Hamster [6] = assay: Increase in nitric oxide synthase level in serum of cholesterol fed hamster at 50 mg/kg/day, po administered for 7 days measured on day 7 post last dose; type: functional, organism-based; details: Cricetinae
Hamster [7] = assay: Decrease in triglyceride level in serum of cholesterol fed hamster model at 50 mg/kg/day, po administered for 7 days measured on day 7 post last dose; type: functional, Cricetinae; parameters: scale not given: the % may be the effect or the level left
Hamster [8] = assay: Toxicity in cholesterol fed hamster model assessed as change in body weight at 50 mg/kg/day, po administered for 7 days measured during compound dosing; type: organism-based; details: cricetinae, in vivo, 168 h
Hamster [9] = assay: Increase in nitric oxide level in serum of cholesterol fed hamster at 50 mg/kg/day, po administered for 7 days measured on day 7 post last dose; type: functional, organism-based; details: Cricetinae
Hamster [10] = assay: Effect on total cholesterol level in cholesterol fed hamster liver at 50 mg/kg/day, po administered for 7 days measured on day 7 post last dose; type: ADME, organism-based; details: cricetinae, in vivo, 168 h
Hamster [11] = assay: Decrease in low density lipoprotein cholesterol level in serum of cholesterol fed hamster model at 50 mg/kg/day, po administered for 7 days measured on day 7 post last dose; type: functional, Cricetinae; parameters: scale not given: the % may be the effect or the level left
Hamster [12] = assay: Increase in proportion of high density lipoprotein cholesterol to total cholesterol in serum of cholesterol fed hamster at 50 mg/kg/day, po administered for 7 days measured on day 7 post last dose; type: functional, Cricetinae
Hamster [13] = assay: Decrease in free fatty acid level in serum of cholesterol fed hamster model at 50 mg/kg/day, po administered for 7 days measured on day 7 post last dose; type: functional, Cricetinae; parameters: scale not given: the % may be the effect or the level left
Hamster [14] = assay: Effect on triglyceride level in cholesterol fed hamster liver at 50 mg/kg/day, po administered for 7 days measured on day 7 post last dose; type: ADME, organism-based; details: cricetinae, in vivo, 168 h
Hamster [15] = assay: Toxicity in cholesterol fed hamster model assessed as decrease in body weight at 50 mg/kg/day, po administered for 7 days measured for 3 days during compound dosing; type: organism-based; details: cricetinae, in vivo, 72 h

Row | Compound | inhibition [1] | CC50 at 48 h [2] [µM] | logP [3] | CC50 at 48 h [4] [µM] | also measured
1 | Cc1ccc(N2C(=O)[C@H](CCCNS(=O)(=O)c3ccc(OC(F)(F)F)cc3)[C@H]2c2ccc(NS(=O)(=O)c3ccc(C)cc3)cc2)cc1 | Active | > 100 | 3.4 | > 100 | 
2 | Cc1ccc(N2C(=O)[C@H](CCCNS(=O)(=O)c3ccc(OC(F)(F)F)cc3)[C@H]2c2ccc([N+](=O)[O-])cc2)cc1 | 47.9% | 56.8 | ≥ 4.4 | > 100 | 
3 | Cc1ccc(N2C(=O)[C@H](CCCNS(=O)(=O)c3ccc(OC(F)(F)F)cc3)[C@H]2c2ccc(NS(C)(=O)=O)cc2)cc1 | 41.4% | > 100 | 3.4 | > 100 | Activity (Hamster [5]): 25.7%; Activity (Hamster [6]): Active; Activity (Hamster [7]): 25.3%; Activity (Hamster [8]): Non-toxic; Activity (Hamster [9]): Active; Activity (Hamster [10]): Non-toxic; Activity (Hamster [11]): 17.8%; Activity (Hamster [12]): 42.9%; Activity (Hamster [13]): 21.4%; Activity (Hamster [14]): Non-toxic
4 | O=C1C(c2ccc(O)cc2)=C(c2ccc(F)cc2)C(=O)N1CCCCNS(=O)(=O)c1ccc(C(F)(F)F)cc1 | Active |  |  |  | 
5 | CCc1ccc(S(=O)(=O)NCCC[C@H]2C(=O)N(c3ccc(C)cc3)[C@@H]2c2ccc(NS(=O)(=O)c3ccc(C)cc3)cc2)cc1 | Active | 92.9 | 3.4 | 42.9 | 
6 | O=C1C(c2ccc(O)cc2)=C(c2ccc(F)cc2)C(=O)N1CCCCNS(=O)(=O)c1ccc(OC(F)(F)F)cc1 | Active |  |  |  | 
7 | CCc1ccc(S(=O)(=O)NCCC[C@H]2C(=O)N(c3ccc(C)cc3)[C@@H]2c2ccc(NS(C)(=O)=O)cc2)cc1 | Active | > 100 | 3.4 | > 100 | 
8 | CCc1ccc(S(=O)(=O)NCCC[C@H]2C(=O)N(c3ccc(C)cc3)[C@@H]2c2ccc([N+](=O)[O-])cc2)cc1 | Active | > 100 | ≥ 4.4 | > 100 | 
9 | O=C1[C@H](CC[C@H](O)c2ccc(F)cc2)[C@@H](c2ccc(O)cc2)N1c1ccc(F)cc1 [EZETIMIBE] |  | 61.3 | 3.4 | 54.6 | Activity (Hamster [5]): 30.2%; Activity (Hamster [15]): Toxic; Activity (Hamster [7]): 36%; Activity (Hamster [11]): 24.8%; Activity (Hamster [12]): 56%; Activity (Hamster [13]): 29.5%
10 | Cc1ccc(N2C(=O)[C@H](CCCNS(=O)(=O)c3cccs3)[C@H]2c2ccc([N+](=O)[O-])cc2)cc1 | Active |  |  |  | 
